According to US11597720B2, “Tetrahydronaphthalene and tetrahydroisoquinoline derivatives as estrogen receptor degraders” (Arvinas Operations, Inc., priority 2016, dated 2023):

What was measured:
[1] = target: T1, Estrogen receptor-alpha (ERα) (Homo sapiens, UniProt P03372); experiment: ERα degradation in T47D cells, western blot; assay type: cell-based; parameters: except that T47D cells were utilized instead of the MCF7 cells; endogenous in cells; host or cells: T47D cells; conditions: 7 concentrations 100 nM to 0.1 nM, 10% FBS, 72 hours
T1 sequence (P03372 1-595): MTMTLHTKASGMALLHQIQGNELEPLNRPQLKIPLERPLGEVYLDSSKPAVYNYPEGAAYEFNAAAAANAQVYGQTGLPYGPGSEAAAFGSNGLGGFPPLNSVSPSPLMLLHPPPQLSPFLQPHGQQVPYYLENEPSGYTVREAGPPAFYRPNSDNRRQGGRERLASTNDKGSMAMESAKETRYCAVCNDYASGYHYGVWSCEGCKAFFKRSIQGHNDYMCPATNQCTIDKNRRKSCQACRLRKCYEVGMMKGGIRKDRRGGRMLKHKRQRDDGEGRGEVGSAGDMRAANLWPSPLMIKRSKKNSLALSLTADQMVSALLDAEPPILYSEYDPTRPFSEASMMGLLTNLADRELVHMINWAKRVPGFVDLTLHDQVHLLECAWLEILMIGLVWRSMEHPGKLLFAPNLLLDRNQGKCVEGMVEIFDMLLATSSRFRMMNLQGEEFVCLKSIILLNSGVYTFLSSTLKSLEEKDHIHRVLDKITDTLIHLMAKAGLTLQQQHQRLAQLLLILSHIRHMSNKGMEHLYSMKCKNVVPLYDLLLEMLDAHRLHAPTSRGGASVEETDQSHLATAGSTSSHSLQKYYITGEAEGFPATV
Experimental: Compounds prepared in this application were also analyzed for their ability to degrade ERα in MCF7 and T47D cells.
Estrogen receptor-alpha (ERα) degradation assay in T47D cells using western blot method. The same protocol that was described above with MCF7 cells was utilized, except that T47D cells were utilized instead of the MCF7 cells.

[2] = target: T1, Estrogen receptor-alpha (ERα); experiment: ERα degradation in MCF-7 cells, western blot; assay type: cell-based; parameters: assessed for their activity in degrading ERα in MCF-7 cells via western blot; endogenous in cells; host or cells: MCF7 cells; conditions: 10% FBS; for Degradation of ERα in MCF7 cells (immunoblot, FIG. 2): 7 concentrations 100 nM to 0.1 nM, 48 hours
Experimental: FIG. 2 and FIG. 3 illustrate represent exemplary compounds from the western blot assay.
Estrogen receptor-alpha (ERα) degradation assay in MCF-7 cells using western blot method. The exemplary novel ERα degraders were assessed for their activity in degrading ERα in MCF-7 cells via western blot. The assay was carried out in the presence of 10% […] bovine serum (FBS) or high percentage of human or mouse serum.
MCF7 cells were grown in DMEM/F12 with 10% fetal bovine serum and seeded at 24,000 cells per well in 100 μl into 96-well clear tissue culture plates. The following day, the cells were treated with PROTACs in a 7-point concentration curve with 100 nM being the top concentration and serial dilutions to make the other concentrations (30 nM, 10 nM, 3 nM, 1 nM, and 0.3 nM). At all concentrations, 0.01% DMS is the final concentration in the well. […], washed with 50 μl of cold P1BS, The cells are lysed with 50 μl/well 4° (Cell Lysis Buffer (Catalog #9803; Cell Signaling Technology, Danvers, Mass.) (20 mM Tris-HCL (pH 7.5), 150 mM NaCl, 1 mM Na2EDTA, 1 mM EGTA, 1% Triton, 2.5 mM sodium pyrophosphate, 1 mM B-glycerophosphate, 1 mM sodium vanadate, 1 ug/ml leupeptin). Lysates were clarified at 16,000×g for 10 minutes, and 2 μg of protein was subjected to SDS-PAGE analysis and followed by immunoblotting according to standard protocols. The antibodies used were ERα (Cell Signaling Technologies Catalog #8644), and Tubulin (Sigma Catalog #T9026; St Louis, Mo.). Detection reagents were Clarity Western ECL substrate (Bio-Rad Catalog #170-5060; Hercules, Calif.).
Alternatively, MCF7 cells were grown in DMEM/F12 with 10% fetal bovine serum and seeded at 24,000 cells per well in 500 μl in 24-well clear tissue culture plates. The following day, the cells were treated with PROTACs in a 5-point concentration curve (100 nM, 33 nM, 11 nM, 3.7 nM, and 1.2 nM) in the presence of 0.01% DMSO, After 72 hours, the wells are aspirated and washed with 500 μl of PBS. The cells are lysed with 100 μl/well 4° C. […]

SMILES	Degradation of ERα in T47D cells (immunoblot, FIG. 4) [1]	Degradation of ERα in MCF7 cells (immunoblot, FIG. 2) [2]	Degradation of ERα in MCF7 cells (immunoblot, FIG. 3) ([2]; 5 concentrations 100 nM to 1.2 nM, 72 hours)
Cc1ncsc1-c1ccc(CNC(=O)[C@@H]2C[C@@H](O)CN2C(=O)[C@@H](NC(=O)COCCN2CCN(CCOc3ccc([C@@H]4c5ccc(O)cc5CC[C@@H]4c4ccccc4)cc3)CC2)C(C)(C)C)cc1 [Example 1, (2S,4R)-4-hydroxy-1-[(2S)-2-(2-{2-[4-(2-{4-[(1R,2S)-6-hydroxy-2-phenyl-1,2,3,4-tetrahydronaphthalen-1-yl]phenoxy}ethyl)piperazin-1-yl]ethoxy}acetamido)-3,3-dimethylbutanoyl]-N-{[4-(4-methyl-1,3-thiazol-5-yl)phenyl]methyl}pyrrolidine-2-carboxamide]	Degradation of ERα	Degradation of ERα	
O=C1CCC(N2Cc3cc(N4CCN(CCCCCOc5ccc([C@@H]6c7ccc(O)cc7CC[C@@H]6c6ccccc6)cc5)CC4)ccc3C2=O)C(=O)N1 (stereo partly drawn) [Example 62, 3-{5-[4-(5-{4-[(1R,2S)-6-hydroxy-2-phenyl-1,2,3,4-tetrahydronaphthalen-1-yl]phenoxy}pentyl)piperazin-1-yl]-1-oxo-2,3-dihydro-1H-isoindol-2-yl}piperidine-2,6-dione]	Degradation of ERα	Degradation of ERα	
O=C1CCC(N2Cc3cc(N4CCN(CC5CCN(c6ccc([C@@H]7c8ccc(O)cc8CC[C@@H]7c7ccccc7)cc6)CC5)CC4)ccc3C2=O)C(=O)N1 (stereo partly drawn) [Example 341, 3-[5-[4-[[1-[4-[(1R, 2S)-6-hydroxy-2-phenyl-tetralin-1-yl]phenyl]-4-piperidyl]methyl]piperazin-1-yl]-1-oxo-isoindolin-2-yl]piperidine-2,6-dione]			Degradation of ERα
